Laboratory results taken from patent publication US20260234180A1, “AMINO ACID DERIVATIVE, PREPARATION METHOD THEREFOR, AND PHARMACEUTICAL COMPOSITION FOR TREATING HEPATITIS, COMPRISING SAME” (priority 2021, published 2026).

Legend:
HBV virus = assay: HBV infection of HepG2-NTCP cells, Southern blot analysis; type: cell-based, hepatitis B virus (HBV); conditions: 20 μM
Experimental: Specifically, the HepG2-NTCP cell line was cultured on a 6-well plate, incubation was performed overnight, HBV inhibitors were treated at a concentration of 20 μM, and the positive control Myrcludex-B (MyrB) was treated at a concentration of 200 nM, followed by culture for 24 hours. After HBV infection into the cells to make HBV 3000 genome equivalent per ml/cell (Geq/cell), the cell culture medium was replaced (medium changing, MC) a day after the viral infection to remove the virus unattached to cell membranes. In order to measure an amount of virus that entered the cell, medium changing (MC) was performed once more 4 days after viral infection. 2 days after replacement, HBeAg ELISA analysis was performed using a supernatant, and Southern blot analysis was performed with cell pellets.
First, the cell pellets were pipetted with 100 μl of HEPES lysis buffer (10 mM HEPES, 100 mM NaCl, 1 mM EDTA, 1% NP-40), placed on ice for 20 minutes, and then centrifuged with a centrifuge under the conditions at 4° C. and 13000 rpm. After transferring the supernatant only to the new microtube, 4.5 μl of nuclease buffer I (10 mM CaCl2), 12 mM MgCl2, DNase 10 units) was added to carry out a reaction at 37° C. for 2 hours, and 40 μl of 26% PEG solution was added, followed by a reaction on ice for 1 hour. After centrifuging with the centrifuge at 4° C. and 13000 rpm for 30 minutes, and the supernatant was removed cleanly. After releasing the pellets with 100 μl of nuclease buffer II (10 mM Tris, 8 mM CaCl2), 6 mM MgCl2), 287.5 μl of 0.5% SDS buffer (25 mM Tris, 10 mM EDTA, 0.5% SDS, 100 mM NaCl) was added, and 12.5 μl of 20 mg/ml proteinase K was added, followed by a reaction at 37° C. for 2 hours. 400 μl of phenol-chloroform-isoamyl alcohol was added, centrifugation was performed at room temperature at 13000 rpm after voltexing, the supernatant was transferred to a new tube, 40 μl of 3 M NaOAc was added, and 800 μl of 100% ethanol was added for inverting, followed by a reaction overnight at −20° C. After performing centrifugation at 4° C. and 13000 rpm for 30 minutes, 800 μl of 70% ethanol was added and mixed to the pellet obtained by removing the supernatant, centrifugation was performed at 4° C. and 13000 rpm for 10 minutes, and then the supernatant was discarded. The ethanol was dried for 5 minutes to leave only the HBV DNA pellets, and then the pellets were dissolved again in 15 μl of TE buffer (10 mM Tris, 1 mM EDTA). HBV DNA samples were loaded in 1% agarose gel, and electrophoresis was performed. It was then immersed in denature buffer (0.25 N NaOH, 1 M NaCl) for 30 minutes to denature dsDNA of HBV into ssDNA. The DNA in the gel was transferred to a Nylon membrane using a transfer buffer (0.4 M NaOH), the membrane was soaked with a 2×SSC buffer (sigma, cat #85639) for neutralization, followed by drying in air. The membrane was immersed in a church buffer (10% BSA, 0.5 M EDTA, 1 M NaPi, 20% SDS), and the radioisotopes were hybridized using a Mega prime kit (GE healthcare, RPN1607). After washing three times with washing buffer (2×SSC, 0.1% SDS), measurement was performed using radioisotope measurement equipment, and a relative replication rate (%) to the negative control group (Mock) was calculated and shown.

[1] = target: T1, NTCP (Na+ taurocholate cotransporting peptide), HepG2-hNTCP-C4 cell line (Homo sapiens, UniProt Q14973); assay: Inhibition of binding between FITC-labelled PreS1 and NTCP expressing cell line, flow cytometry
T1 construct: expressed in transfected cells; host or cells: HepG2-hNTCP-C4 (HepG2 cells expressing human NTCP)
T1 sequence (Q14973 1-349): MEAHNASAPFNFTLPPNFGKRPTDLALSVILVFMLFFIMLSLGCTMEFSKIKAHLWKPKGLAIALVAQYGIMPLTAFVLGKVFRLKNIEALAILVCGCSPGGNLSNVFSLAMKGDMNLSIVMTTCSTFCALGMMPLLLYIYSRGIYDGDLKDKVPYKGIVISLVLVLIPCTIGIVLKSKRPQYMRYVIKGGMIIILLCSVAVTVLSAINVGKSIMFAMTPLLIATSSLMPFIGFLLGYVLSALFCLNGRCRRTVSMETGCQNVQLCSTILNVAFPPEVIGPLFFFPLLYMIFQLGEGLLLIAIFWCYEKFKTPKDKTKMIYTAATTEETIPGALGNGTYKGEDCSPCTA
Experimental: HepG2-hNTCP-C4 cell line, a cell line expressing NTCP, was seeded in a 6 well plate at a density of 2×10^5/well and incubated at 4° C. for 30 minutes when the confluency reached 80% after overnight incubation for 2 days. Thereafter, 20 nM PreS1 (Myr-GTNL […]-Lys(FITC) (SEQ ID NO: 1)) and the compounds in Example 1, Examples 38 to 56 or the compound in Comparative Example 1 were treated by diluting in culture media at 4° C. at a concentration of 50 µM respectively, and the media was suctioned after 2 hours, followed by washing 3 times with 4° C. PBS. In order to take the cells off from the plate, 500 μl of 0.5 mM EDTA PBS solution was treated, and then incubation was performed at 37° C. for 15 minutes to check whether the cells fell off through an optical microscope. After taking off the cells by pipetting, the cells were collected in a 1.5 ml tube and centrifuged (4000 rpm, 4° C., 3 min). After suctioning the supernatant, the pellet was washed 3 times with 4° C. PBS, and then green fluorescence was measured via flow cytometry. In this case, taurocholic acid (TCA), a compound known as a substrate of NTCP to reduce the entry of HBV or HDV, was used as a positive control group.
In the graph at the top of FIG. 1, black (1) and red (2) indicate a negative control group with no treatment and an HBV-induced group (HBV preS1) solely treated with PreS1, respectively. Blue (HBV preS1+HBV entry inhibitor) (3) is the fluorescence value for each of Examples or Comparative Examples, evaluated that the closer to the negative control group, the more inhibited the binding between PreS1 and the NTCP cell line.
The experimental method was the same as in the Experimental Example 1-1, and 20 nM PreS1 and each compound were treated at 4 concentrations (0.2 μM, 2 μM, 10 μM, 50 μM).
With an expectation that there is a structure-activity relationship among compounds composed of bile acid and amino acids, for each of bile acids in Comparative Example 1 (lithocholic acid, LCA), Comparative Example 2 (ursodeoxycholic acid, UDCA), Comparative Example 3 (cholic acid, CA), Comparative Example 4 (hyodeoxycholic acid, HDCA), Comparative Example 5 (deoxycholic acid, DCA), and Comparative Example 6 (chenodeoxycholic acid, CDCA), an evaluation experiment was conducted on an ability to inhibit the binding between PreS1 and NTCP expressing cell lines, and also for Examples 1 (LCA-Ile) and Example 44 (LCA-Val) as well as the compounds in Example 2 (UDCA-Ile), Example 3 (UDCA-Val), Example 6 (CA-Ile), Example 7 (CA-Val), Example 8 (HDCA-Ile), Example 9 (HDCA-Val), Example 10 (DCA-Ile), Example 11 (DCA-Val), Example 14 (CDCA-Ile), and Example 15 (CDCA-Val) in which bile acid parts (lithocholic acid) of Example 1 (LCA-Ile) and Example 44 (LCA-Val) were substituted with other types of bile acids in Comparative Examples 2 to 6, an evaluation experiment was conducted on an ability to inhibit the binding between PreS1 and NTCP expressing cell lines. The experimental method was the same as in the Experimental Example 1-1, and 18 compounds in the Comparative Examples 1 to 6, Examples 1 to 3, Examples 6 to 11, Examples 14 to 15, and Example 44 were treated at a concentration of 50 µM along with 20 nM PreS1.
In FIG. 9, an evaluation experiment was conducted to check a degree of inhibiting the binding between PreS1 and NTCP expressing cell lines for compounds in Examples 4 to 5, Examples 12 to 13, Examples 16 to 17, and Comparative Examples 2 (ursodeoxycholic acid, UDCA), Comparative Examples 5 (deoxycholic acid, DCA), and Comparative Examples 6 (chenodeoxycholic acid, CDCA) according to the present disclosure. The experimental method was the same as the Experimental Example 1-1.
In the Experimental Examples 1-4, it was determined whether there is additionally concentration dependence for Example 4 (UDCA-Trp), a compound with good inhibitory ability. […]

| SMILES | amount of HBeAg DNA detected compared to the negative control group (Mock) (HBV virus) | effect of inhibiting the binding between PreS1 and NTCP expressing cell lines by treatment concentration ([1]; 0.2 μM, 2 μM, 10 μM, 50 μM, 20 nM PreS1) | relative fluorescence intensity compared to Comparative Example 1 (LCA) ([1]; compound 50 µM, 20 nM PreS1, 4° C., 2 hours, lower = more inhibited binding) |
| --- | --- | --- | --- |
| CC(C)[C@H](NC(=O)CC[C@@H](C)[C@H]1CC[C@H]2[C@@H]3CC[C@@H]4C[C@H](O)CC[C@]4(C)[C@H]3CC[C@]12C)C(=O)N[C@@H](Cc1c[nH]c2ccccc12)C(=O)O [Example 25, (S)-2-((S)-2-((R)-4-((3R,5R,8R,9S,10S,13R,14S,17R)-3-hydroxy-10,13-dimethyl-hexadecahydro-1H-cyclopenta[a]phenanthren-17-yl)pentanamido)-3-methylbutanamido)-3-(1H-indol-3-yl)propanoic acid] | relatively less amount |  |  |
| C[C@H](CCC(=O)N[C@@H](Cc1ccc(O)cc1)C(=O)O)[C@H]1CC[C@H]2[C@@H]3CC[C@@H]4C[C@H](O)CC[C@]4(C)[C@H]3CC[C@]12C [Example 52, (S)-2-((R)-4-((3R,5R,8R,9S,10S,13R,14S,17R)-3-hydroxy-10,13-dimethyl-hexadecahydro-1H-cyclopenta[a]phenanthren-17-yl)pentanamido)-3-(4-hydroxyphenyl)propanoic acid] | relatively less amount | concentration dependent | low and lower |
| C[C@H](CCC(=O)N[C@@H](CCC(=O)O)C(=O)O)[C@H]1CC[C@H]2[C@@H]3CC[C@@H]4C[C@H](O)CC[C@]4(C)[C@H]3CC[C@]12C [Example 55, (S)-2-((R)-4-((3R,5R,8R,9S,10S,13R,14S,17R)-3-hydroxy-10,13-dimethyl-hexadecahydro-1H-cyclopenta[a]phenanthren-17-yl)pentanamido)pentanedioic acid] | relatively less amount |  |  |
